Key:
RET (V804M) = RET (V804M) (Homo sapiens, UniProt P07949, V804M); assay: RET enzyme inhibitory ability, ADP-Glo kinase assay; assay type: biochemical; details: ATP 10 μM, 25° C., 1 hour
How it was run: (§1)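 Purified human RET (658-end, 0.8 ng) was reacted with 10 μM ATP and substrate 1 h at 25°C in 40 mM Tris-HCl pH 7.4, 20 mM MgCl2, 0.5 mg/mL BSA, 50 μM DTT. ADP-Glo luminescence was normalised to solvent control; IC50 (nM) from 3 datasets.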

CCDC6-RET = target: T1, CCDC6-RET (Homo sapiens, UniProt P07949); assay: as above; assay type: biochemical; details: ATP 10 μM, 25° C., 1 hour
T1 construct: the other entry of the earlier key: CCDC6 (Q16204, Coiled-coil domain-containing protein 6)
How it was run: as §1

RET (WT) = target: T2, RET (WT) (Homo sapiens, UniProt P07949); assay: as above; assay type: biochemical; details: ATP 10 μM, 25° C., 1 hour
T2 construct: human RET (658-end, SIGNALCHEM); purchased SIGNALCHEM
T2 sequence (P07949 658-1114 limits assumed): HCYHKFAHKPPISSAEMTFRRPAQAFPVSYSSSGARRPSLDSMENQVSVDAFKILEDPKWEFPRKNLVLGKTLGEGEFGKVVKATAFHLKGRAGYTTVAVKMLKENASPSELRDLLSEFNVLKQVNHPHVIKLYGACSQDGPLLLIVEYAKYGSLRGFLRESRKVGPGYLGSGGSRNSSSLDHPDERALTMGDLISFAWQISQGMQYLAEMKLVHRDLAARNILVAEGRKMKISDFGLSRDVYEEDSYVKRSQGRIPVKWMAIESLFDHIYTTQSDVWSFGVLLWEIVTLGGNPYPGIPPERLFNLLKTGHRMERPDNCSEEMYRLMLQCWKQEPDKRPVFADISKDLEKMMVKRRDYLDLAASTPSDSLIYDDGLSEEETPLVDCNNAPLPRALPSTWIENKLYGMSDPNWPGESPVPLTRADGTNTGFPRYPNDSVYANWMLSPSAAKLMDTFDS
How it was run: as §1

RET(V804L) = target: T3, RET(V804L) (Homo sapiens, UniProt P07949, V804L); assay: ScanMAX Kinase analysis panel (DiscoverX); assay type: binding; details: read-out: adjusted percentage (% control)
T3 construct: purchased DiscoverX ScanMAX Kinase analysis panel
Description: (§2) The following experiment was performed in order to evaluate the inhibitory activity of the compound according to the present invention against more enzymes. Specifically, for Examples 1 and 3 selected among the Example compounds of the present invention, the enzyme (kinase) selectivity was set to be measured by commissioning DiscoverX, and an experiment was conducted using a ScanMAX™ Kinase analysis panel. In this case, the concentration of the drug treated with the enzyme was set to 1 μM in DMSO, the adjusted percentage (% control) was determined in the same manner as in the following Equation 1, and the results are shown in the following Table 3. (Example compound−Positive control)/(Negative control−Positive control)×100 [Equation 1]
(§3) In addition, the enzyme selectivity of the present invention was determined to be active against the corresponding enzyme when the adjusted percentage was <35% (that is, less than 35%).

MEK5 = target: T4, MEK5 (Homo sapiens, UniProt Q13163); assay: ScanMAX Kinase analysis panel (DiscoverX); assay type: binding; details: read-out: adjusted percentage (% control)
T4 construct: purchased DiscoverX ScanMAX Kinase analysis panel
Description: as §2, §3

LCK = target: T5, LCK (Homo sapiens, UniProt P06239); assay: ScanMAX Kinase analysis panel (DiscoverX); assay type: binding; details: read-out: adjusted percentage (% control)
T5 construct: purchased DiscoverX ScanMAX Kinase analysis panel
Description: as §2, §3

HCK = target: T6, HCK (Homo sapiens, UniProt P08631); assay: ScanMAX Kinase analysis panel (DiscoverX); assay type: binding; details: read-out: adjusted percentage (% control)
T6 construct: purchased DiscoverX ScanMAX Kinase analysis panel
Description: as §2, §3

BTK = target: T7, BTK (Homo sapiens, UniProt Q06187); assay: ScanMAX Kinase analysis panel (DiscoverX); assay type: binding; details: read-out: adjusted percentage (% control)
T7 construct: purchased DiscoverX
Description: as §2, §3

AURKC = target: T8, AURKC (Homo sapiens, UniProt Q9UQB9); assay: ScanMAX Kinase analysis panel (DiscoverX); assay type: binding; details: read-out: adjusted percentage (% control)
T8 construct: purchased DiscoverX
Description: as §2, §3

FLT3(ITD, F691L) = assay: ScanMAX Kinase analysis panel (DiscoverX); assay type: binding; details: 1 μM
Description: as §2, §3

CSNK2A1 = target: T9, CSNK2A1 (Homo sapiens, UniProt P68400); assay: ScanMAX Kinase analysis panel (DiscoverX); assay type: binding; details: read-out: adjusted percentage (% control)
T9 construct: purchased DiscoverX
Description: as §2, §3

MERTK = target: T10, MERTK (Homo sapiens, UniProt Q12866); assay: ScanMAX Kinase analysis panel (DiscoverX); assay type: binding; details: read-out: adjusted percentage (% control)
T10 construct: purchased DiscoverX ScanMAX Kinase analysis panel
Description: as §2, §3

SNARK = target: T11, SNARK (Homo sapiens, UniProt Q9H093); assay: ScanMAX Kinase analysis panel (DiscoverX); assay type: binding; details: read-out: adjusted percentage (% control)
T11 construct: purchased DiscoverX ScanMAX Kinase analysis panel
Description: as §2, §3

ABL1-phosphorylated = target: T12, ABL1-phosphorylated (Homo sapiens, UniProt P00519); assay: ScanMAX Kinase analysis panel (DiscoverX); assay type: binding; details: read-out: adjusted percentage (% control)
T12 construct: purchased DiscoverX
Description: as §2, §3

FRK = target: T13, FRK (Homo sapiens, UniProt P42685); assay: ScanMAX Kinase analysis panel (DiscoverX); assay type: binding; details: read-out: adjusted percentage (% control)
T13 construct: purchased DiscoverX ScanMAX Kinase analysis panel
Description: as §2, §3

[1] = target: T14, ABL1(H396P)-phosphorylated (Homo sapiens, UniProt P00519, H396P); assay: ScanMAX Kinase analysis panel (DiscoverX); assay type: binding; details: read-out: adjusted percentage (% control)
T14 construct: purchased DiscoverX
Description: as §2, §3

MST1 = target: T15, MST1 (Homo sapiens, UniProt Q13043); assay: ScanMAX Kinase analysis panel (DiscoverX); assay type: binding; details: read-out: adjusted percentage (% control)
T15 construct: purchased DiscoverX ScanMAX Kinase analysis panel
Description: as §2, §3

RET(V804M) = target: T16, RET(V804M) (Homo sapiens, UniProt P07949, V804M); assay: ScanMAX Kinase analysis panel (DiscoverX); assay type: binding; details: read-out: adjusted percentage (% control)
T16 construct: purchased DiscoverX ScanMAX Kinase analysis panel
Description: as §2, §3

SRC = target: T17, SRC (Homo sapiens, UniProt P12931); assay: ScanMAX Kinase analysis panel (DiscoverX); assay type: binding; details: read-out: adjusted percentage (% control)
T17 construct: purchased DiscoverX ScanMAX Kinase analysis panel
Description: as §2, §3

TRKC = target: T18, TRKC (Homo sapiens, UniProt Q16288); assay: ScanMAX Kinase analysis panel (DiscoverX); assay type: binding; details: read-out: adjusted percentage (% control)
T18 construct: purchased DiscoverX ScanMAX Kinase analysis panel
Description: as §2, §3

[2] = target: T19, ABL1(T315I)-phosphorylated (Homo sapiens, UniProt P00519, T315I); assay: ScanMAX Kinase analysis panel (DiscoverX); assay type: binding; details: read-out: adjusted percentage (% control)
T19 construct: purchased DiscoverX
Description: as §2, §3

T15 sequence (Q13043 whole entry): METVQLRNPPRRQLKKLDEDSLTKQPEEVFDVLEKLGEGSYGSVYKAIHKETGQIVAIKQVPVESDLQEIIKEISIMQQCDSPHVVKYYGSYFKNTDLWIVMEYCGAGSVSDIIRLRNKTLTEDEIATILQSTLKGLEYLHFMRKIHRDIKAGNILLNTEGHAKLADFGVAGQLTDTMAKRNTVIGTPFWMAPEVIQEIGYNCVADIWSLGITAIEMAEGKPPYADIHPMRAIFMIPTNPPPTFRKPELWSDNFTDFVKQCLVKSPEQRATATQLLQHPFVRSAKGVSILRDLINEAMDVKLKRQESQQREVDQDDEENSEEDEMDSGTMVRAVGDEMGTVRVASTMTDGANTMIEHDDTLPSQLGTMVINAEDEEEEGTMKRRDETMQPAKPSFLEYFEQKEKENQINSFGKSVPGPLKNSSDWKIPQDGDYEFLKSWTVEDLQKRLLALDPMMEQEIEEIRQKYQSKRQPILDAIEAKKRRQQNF
T13 sequence (P42685 whole entry): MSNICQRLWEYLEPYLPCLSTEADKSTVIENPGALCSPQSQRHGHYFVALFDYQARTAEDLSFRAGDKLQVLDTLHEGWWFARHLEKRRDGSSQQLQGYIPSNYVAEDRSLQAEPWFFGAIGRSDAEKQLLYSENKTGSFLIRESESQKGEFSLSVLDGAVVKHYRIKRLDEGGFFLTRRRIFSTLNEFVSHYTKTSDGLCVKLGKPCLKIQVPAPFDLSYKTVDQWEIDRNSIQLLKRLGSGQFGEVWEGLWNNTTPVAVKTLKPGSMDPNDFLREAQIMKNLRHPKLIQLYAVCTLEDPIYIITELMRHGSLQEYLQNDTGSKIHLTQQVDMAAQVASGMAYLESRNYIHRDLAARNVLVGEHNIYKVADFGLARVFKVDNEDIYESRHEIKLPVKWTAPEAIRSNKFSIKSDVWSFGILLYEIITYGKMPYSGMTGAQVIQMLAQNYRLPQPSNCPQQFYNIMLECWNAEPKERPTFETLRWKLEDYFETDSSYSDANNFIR
T11 sequence (Q9H093 whole entry): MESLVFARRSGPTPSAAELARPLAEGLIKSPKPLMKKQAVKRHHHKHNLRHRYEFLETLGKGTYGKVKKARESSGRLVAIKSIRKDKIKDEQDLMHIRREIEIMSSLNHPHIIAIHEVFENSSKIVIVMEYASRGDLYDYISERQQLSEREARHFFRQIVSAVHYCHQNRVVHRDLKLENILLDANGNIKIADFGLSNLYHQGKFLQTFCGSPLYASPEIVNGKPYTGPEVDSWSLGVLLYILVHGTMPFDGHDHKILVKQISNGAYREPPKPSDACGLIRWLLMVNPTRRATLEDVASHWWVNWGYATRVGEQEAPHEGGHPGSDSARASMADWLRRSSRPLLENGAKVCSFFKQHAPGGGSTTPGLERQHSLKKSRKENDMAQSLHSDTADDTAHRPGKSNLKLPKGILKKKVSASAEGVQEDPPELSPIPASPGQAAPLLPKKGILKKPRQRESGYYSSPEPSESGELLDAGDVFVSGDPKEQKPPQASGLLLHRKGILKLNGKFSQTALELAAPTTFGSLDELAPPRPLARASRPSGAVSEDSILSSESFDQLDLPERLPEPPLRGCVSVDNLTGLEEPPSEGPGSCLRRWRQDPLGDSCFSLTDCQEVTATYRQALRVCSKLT
T5 sequence (P06239 whole entry): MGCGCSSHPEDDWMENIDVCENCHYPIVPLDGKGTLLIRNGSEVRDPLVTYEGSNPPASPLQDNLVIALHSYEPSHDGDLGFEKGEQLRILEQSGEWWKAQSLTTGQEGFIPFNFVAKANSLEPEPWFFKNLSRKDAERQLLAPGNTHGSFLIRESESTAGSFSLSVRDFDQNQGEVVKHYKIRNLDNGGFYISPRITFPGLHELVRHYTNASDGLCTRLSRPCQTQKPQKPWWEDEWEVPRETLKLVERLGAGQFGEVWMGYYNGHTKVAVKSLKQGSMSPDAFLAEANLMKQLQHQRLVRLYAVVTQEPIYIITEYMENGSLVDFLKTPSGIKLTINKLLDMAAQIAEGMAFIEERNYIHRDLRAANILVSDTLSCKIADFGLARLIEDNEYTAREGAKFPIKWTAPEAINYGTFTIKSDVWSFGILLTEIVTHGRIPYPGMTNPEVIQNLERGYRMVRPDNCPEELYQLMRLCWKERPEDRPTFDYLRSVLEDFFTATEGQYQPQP
T4 sequence (Q13163 whole entry): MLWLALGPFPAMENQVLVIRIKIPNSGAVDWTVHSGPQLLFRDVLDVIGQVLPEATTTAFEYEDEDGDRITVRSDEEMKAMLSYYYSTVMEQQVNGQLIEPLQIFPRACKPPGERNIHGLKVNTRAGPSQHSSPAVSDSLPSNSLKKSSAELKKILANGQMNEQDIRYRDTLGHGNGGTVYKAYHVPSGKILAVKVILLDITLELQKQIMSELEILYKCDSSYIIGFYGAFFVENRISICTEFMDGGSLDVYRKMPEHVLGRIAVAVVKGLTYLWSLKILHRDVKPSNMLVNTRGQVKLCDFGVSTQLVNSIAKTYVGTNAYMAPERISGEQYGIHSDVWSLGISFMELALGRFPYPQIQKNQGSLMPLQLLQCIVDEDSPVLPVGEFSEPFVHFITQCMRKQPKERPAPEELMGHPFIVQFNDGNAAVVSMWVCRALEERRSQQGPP
T18 sequence (Q16288 32-839): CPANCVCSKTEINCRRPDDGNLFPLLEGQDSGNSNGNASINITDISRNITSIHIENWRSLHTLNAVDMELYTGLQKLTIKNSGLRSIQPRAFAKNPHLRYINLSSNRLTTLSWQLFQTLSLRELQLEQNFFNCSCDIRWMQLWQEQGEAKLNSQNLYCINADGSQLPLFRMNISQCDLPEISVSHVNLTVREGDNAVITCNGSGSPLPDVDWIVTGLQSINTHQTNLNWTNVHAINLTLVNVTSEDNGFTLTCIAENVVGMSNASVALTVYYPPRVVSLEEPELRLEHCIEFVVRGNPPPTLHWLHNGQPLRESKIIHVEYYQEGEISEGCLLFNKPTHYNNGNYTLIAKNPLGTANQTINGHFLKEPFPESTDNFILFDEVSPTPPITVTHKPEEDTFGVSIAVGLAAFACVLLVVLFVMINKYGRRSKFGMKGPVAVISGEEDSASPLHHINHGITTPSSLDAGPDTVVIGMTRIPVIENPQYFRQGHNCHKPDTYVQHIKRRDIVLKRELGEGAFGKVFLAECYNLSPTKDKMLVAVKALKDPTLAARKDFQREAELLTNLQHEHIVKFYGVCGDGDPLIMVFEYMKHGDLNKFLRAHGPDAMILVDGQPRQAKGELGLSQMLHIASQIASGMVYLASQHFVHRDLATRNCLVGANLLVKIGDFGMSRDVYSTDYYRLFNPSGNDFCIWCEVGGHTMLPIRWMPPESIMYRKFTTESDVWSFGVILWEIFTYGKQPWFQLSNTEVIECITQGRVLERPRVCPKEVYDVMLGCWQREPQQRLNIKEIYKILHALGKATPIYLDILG
T9 sequence (P68400 whole entry): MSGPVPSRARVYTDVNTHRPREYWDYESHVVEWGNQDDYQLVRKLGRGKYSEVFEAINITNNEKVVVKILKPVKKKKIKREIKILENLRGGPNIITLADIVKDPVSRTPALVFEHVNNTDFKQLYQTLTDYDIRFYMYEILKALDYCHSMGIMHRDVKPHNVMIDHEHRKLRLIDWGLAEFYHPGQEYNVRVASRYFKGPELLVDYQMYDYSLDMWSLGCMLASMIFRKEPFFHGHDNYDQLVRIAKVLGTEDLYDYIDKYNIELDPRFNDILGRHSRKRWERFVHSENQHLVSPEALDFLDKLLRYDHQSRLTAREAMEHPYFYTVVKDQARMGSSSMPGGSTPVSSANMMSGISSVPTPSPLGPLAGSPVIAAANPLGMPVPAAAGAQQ
T1 sequence (P07949 with tags, fused parts or gaps): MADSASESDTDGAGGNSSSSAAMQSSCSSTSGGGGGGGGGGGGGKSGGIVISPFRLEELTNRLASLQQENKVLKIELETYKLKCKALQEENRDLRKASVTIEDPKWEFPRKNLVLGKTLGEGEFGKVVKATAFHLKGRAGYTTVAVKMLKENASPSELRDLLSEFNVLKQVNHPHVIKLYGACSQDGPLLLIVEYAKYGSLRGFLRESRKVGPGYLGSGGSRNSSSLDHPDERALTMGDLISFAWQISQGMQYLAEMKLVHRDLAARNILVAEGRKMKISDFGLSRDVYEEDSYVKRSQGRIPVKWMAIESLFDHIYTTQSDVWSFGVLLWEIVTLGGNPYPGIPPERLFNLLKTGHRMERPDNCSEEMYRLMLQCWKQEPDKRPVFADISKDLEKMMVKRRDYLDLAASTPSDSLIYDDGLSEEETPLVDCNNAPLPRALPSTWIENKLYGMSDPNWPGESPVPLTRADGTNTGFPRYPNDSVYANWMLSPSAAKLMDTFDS
T6 sequence (P08631 whole entry): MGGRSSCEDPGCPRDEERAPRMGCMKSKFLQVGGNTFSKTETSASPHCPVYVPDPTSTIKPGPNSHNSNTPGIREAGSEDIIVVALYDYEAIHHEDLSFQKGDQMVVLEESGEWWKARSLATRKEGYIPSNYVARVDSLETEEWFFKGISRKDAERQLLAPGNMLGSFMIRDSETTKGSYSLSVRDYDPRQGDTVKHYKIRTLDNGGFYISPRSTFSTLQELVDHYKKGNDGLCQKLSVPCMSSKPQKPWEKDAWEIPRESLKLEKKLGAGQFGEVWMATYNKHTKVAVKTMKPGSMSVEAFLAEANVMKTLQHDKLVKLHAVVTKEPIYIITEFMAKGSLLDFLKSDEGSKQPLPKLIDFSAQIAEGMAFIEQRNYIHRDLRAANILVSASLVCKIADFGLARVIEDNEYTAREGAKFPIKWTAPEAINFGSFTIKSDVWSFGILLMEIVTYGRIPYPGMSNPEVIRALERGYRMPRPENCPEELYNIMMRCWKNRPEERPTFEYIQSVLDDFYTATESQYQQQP

## COc1ccc(CN2C3CC2CN(c2ccc(-c4nc(Nc5cc(C)[nH]n5)c5occc5n4)cn2)C3)cn1 [Example 1, 2-(6-(6-((6-methoxypyridin-3-yl)methyl)-3,6-diazabicyclo[3.1.1]heptan-3-yl)pyridin-3-yl)-N-(5-methyl-1H-pyrazol-3-yl)furo[3,2-d]pyrimidin-4-amine]
RET (V804M)
  IC50: 2.2 nM
CCDC6-RET
  IC50: 1.8 nM
RET (WT)
  IC50: 18 nM
RET(V804L)
  remaining binding at 1 µM: 1.1%
MEK5
  remaining binding at 1 µM: 9.9%
LCK
  remaining binding at 1 µM: 2.5%
HCK
  remaining binding at 1 µM: 4.1%
BTK
  remaining binding at 1 µM: 17%
AURKC
  remaining binding at 1 µM: 15%
FLT3(ITD, F691L)
  adjusted percentage (% control): 1.4%
CSNK2A1
  remaining binding at 1 µM: 2.4%
MERTK
  remaining binding at 1 µM: 34%
SNARK
  remaining binding at 1 µM: 22%
ABL1-phosphorylated
  remaining binding at 1 µM: 30%
FRK
  remaining binding at 1 µM: 18%
[1]
  remaining binding at 1 µM: 28%
MST1
  remaining binding at 1 µM: 25%
RET(V804M)
  remaining binding at 1 µM: 0%
SRC
  remaining binding at 1 µM: 0.7%
TRKC
  remaining binding at 1 µM: 0.45%
[2]
  remaining binding at 1 µM: 19%

## COc1ccc(CN2C3CC2CN(c2ccc(-c4nc(Nc5cc(C)[nH]n5)c5ccccc5n4)cn2)C3)cn1 [Example 3, 2-(6-(6-((6-methoxypyridin-3-yl)methyl)-3,6-diazabicyclo [3.1.1]heptan-3-yl)pyridin-3-yl)-N-(5-methyl-1H-pyrazol-3-yl)quinazolin-4-amine]
RET (V804M)
  IC50: 0.7 nM
CCDC6-RET
  IC50: 0.9 nM
RET (WT)
  IC50: 7 nM
RET(V804L)
  remaining binding at 1 µM: 0.4%
MEK5
  remaining binding at 1 µM: 2.2%
LCK
  remaining binding at 1 µM: 1.8%
HCK
  remaining binding at 1 µM: 3.2%
BTK
  remaining binding at 1 µM: 16%
AURKC
  remaining binding at 1 µM: 21%
FLT3(ITD, F691L)
  adjusted percentage (% control): 8.8%
CSNK2A1
  remaining binding at 1 µM: 1.5%
MERTK
  remaining binding at 1 µM: 6.2%
SNARK
  remaining binding at 1 µM: 17%
ABL1-phosphorylated
  remaining binding at 1 µM: 15%
FRK
  remaining binding at 1 µM: 34%
[1]
  remaining binding at 1 µM: 21%
MST1
  remaining binding at 1 µM: 30%
RET(V804M)
  remaining binding at 1 µM: 0%
SRC
  remaining binding at 1 µM: 0%
TRKC
  remaining binding at 1 µM: 1%
[2]
  remaining binding at 1 µM: 3.2%
